Measurements from PMC7438494 (Communications Biology, 2020).
Values joined by “and” are separate entries in the source; they are usually repeats but may differ in a detail not shown here. Identical values can stand only once. Like-named read-outs stand apart in the source and are kept apart here.

Target: human ATP synthase (Homo sapiens, UniProt P00846+P05496)
Assay: biochemical
Type: biochemical
[1] = BDQ 0.65 uM, […], frozen human mito, BDQ in DMSO
[2] = BDQ 0.65 uM, cyanide sensitive, 60 min, frozen human mito, BDQ in DMSO
[3] = BDQ 1 uM, […], frozen human mito, BDQ in DMSO
[4] = BDQ 1 uM, cyanide sensitive, human
[5] = BDQ 2 uM, […], frozen human mito, BDQ in DMSO
[6] = BDQ 5 uM, […], frozen human mito, BDQ in DMSO
[7] = BDQ 5 uM, cyanide sensitive, human
[8] = BDQ 10 uM, […], frozen human mito, BDQ in DMSO
[9] = BDQ 10 uM, cyanide sensitive, human
[10] = Human Mito, 1st exp (12-14-18), Bedaquiline 0.05 μM, 60 min
[11] = Human Mito, 2nd exp (12-17-18), Bedaquiline 0.05 μM, 60 min

## COc1nc2ccc(Br)cc2cc1[C@@H](c1ccccc1)[C@@](O)(CCN(C)C)c1cccc2ccccc12 [BDQ, Bedaquiline]
BDQ 0.5 uM, cyanide sensitive, human
  cyanide sensitive % inhibition: 66.6% and 70.0% and 42.0% and 48.8% and 35.1%
[1]
  % activity: 30.2506%
  % inhibition: 69.7494%
  ATP produced, nmol/min/mg: 2.55 nmol/min/mg
  ATP produced, pmol/min/mg: 2547.17 pmol/min/mg
BDQ 0.65 uM, […], frozen human mito, BDQ in DMSO, read-out: % activity
  activity at 0.65 µM: 30.3%
BDQ 0.65 uM, […], frozen human mito, BDQ in DMSO, read-out: % activity, cyanide sensitive
  activity at 0.65 µM: 18.5%
BDQ 0.65 uM, […], frozen human mito, BDQ in DMSO, read-out: % inhibition
  inhibition at 0.65 µM: 69.7%
BDQ 0.65 uM, […], frozen human mito, BDQ in DMSO, read-out: % inhibition, cyanide sensitive
  inhibition at 0.65 µM: 81.5%
[2]
  cyanide sensitive ATP produced, nmol/min/mg: 1.33 nmol/min/mg
  cyanide sensitive ATP produced, pmol/min/mg: 1329.08 pmol/min/mg
BDQ 0.85 uM, cyanide sensitive, human
  cyanide sensitive % inhibition: 67.5% and 100.0% and 66.9%
[3]
  % activity: 17.1322%
  % activity, cyanide sensitive: 3.117%
  % inhibition: 82.8678%
  ATP produced, nmol/min/mg: 1.44 nmol/min/mg
  ATP produced, pmol/min/mg: 1442.57 pmol/min/mg
BDQ 1 uM, […], frozen human mito, BDQ in DMSO, read-out: % activity
  activity at 1 µM: 17.1%
BDQ 1 uM, […], frozen human mito, BDQ in DMSO, read-out: % inhibition
  inhibition at 1 µM: 82.9%
BDQ 1 uM, […], frozen human mito, BDQ in DMSO, read-out: % inhibition, cyanide sensitive
  inhibition at 1 µM: 96.9%
BDQ 1 uM, cyanide sensitive, 60 min, frozen human mito, BDQ in DMSO
  cyanide sensitive ATP produced, pmol/min/mg: 224.48 pmol/min/mg
[4]
  cyanide sensitive % activity: -0.8% and 8.7% and -0.171%
  cyanide sensitive % inhibition: 91.3% and 100.2%
BDQ 1 uM, cyanide sensitive, human, read-out: cyanide sensitive % inhibition
  inhibition at 1 µM: 101%
[5]
  % activity: 12.0221%
  % inhibition: 87.9779%
  ATP produced, nmol/min/mg: 1.01 nmol/min/mg
  ATP produced, pmol/min/mg: 1012.29 pmol/min/mg
BDQ 2 uM, […], frozen human mito, BDQ in DMSO, read-out: % activity
  activity at 2 µM: 12%
BDQ 2 uM, […], frozen human mito, BDQ in DMSO, read-out: % activity, cyanide sensitive
  activity at 2 µM: -2.86%
BDQ 2 uM, […], frozen human mito, BDQ in DMSO, read-out: % inhibition
  inhibition at 2 µM: 88%
BDQ 2 uM, […], frozen human mito, BDQ in DMSO, read-out: % inhibition, cyanide sensitive
  inhibition at 2 µM: 103%
BDQ 2 uM, cyanide sensitive, 60 min, frozen human mito, BDQ in DMSO
  cyanide sensitive ATP produced, pmol/min/mg: -205.80 pmol/min/mg
BDQ 2 uM, cyanide sensitive, human
  cyanide sensitive % inhibition: 98.3% and 117.8% and 98.9% and 97.2% and 102.7%
[6]
  % activity: 17.1136%
  % activity, cyanide sensitive: 3.095%
  % inhibition: 82.8864%
  ATP produced, nmol/min/mg: 1.44 nmol/min/mg
  ATP produced, pmol/min/mg: 1441.00 pmol/min/mg
BDQ 5 uM, […], frozen human mito, BDQ in DMSO, read-out: % activity
  activity at 5 µM: 17.1%
BDQ 5 uM, […], frozen human mito, BDQ in DMSO, read-out: % inhibition
  inhibition at 5 µM: 82.9%
BDQ 5 uM, […], frozen human mito, BDQ in DMSO, read-out: % inhibition, cyanide sensitive
  inhibition at 5 µM: 96.9%
BDQ 5 uM, cyanide sensitive, 60 min, frozen human mito, BDQ in DMSO
  cyanide sensitive ATP produced, pmol/min/mg: 222.91 pmol/min/mg
[7]
  cyanide sensitive % activity: -7.0% and -10.1% and -4.1% and -2.6% and -5.6%
  cyanide sensitive % inhibition: 107.0% and 110.1% and 102.6% and 105.6%
BDQ 5 uM, cyanide sensitive, human, read-out: cyanide sensitive % inhibition
  inhibition at 5 µM: 104%
[8]
  % activity: 14.9815%
  % activity, cyanide sensitive: 0.6024%
  % inhibition: 85.0185%
  ATP produced, nmol/min/mg: 1.26 nmol/min/mg
  ATP produced, pmol/min/mg: 1261.47 pmol/min/mg
BDQ 10 uM, […], frozen human mito, BDQ in DMSO, read-out: % activity
  activity at 10 µM: 15%
BDQ 10 uM, […], frozen human mito, BDQ in DMSO, read-out: % inhibition
  inhibition at 10 µM: 85%
BDQ 10 uM, […], frozen human mito, BDQ in DMSO, read-out: % inhibition, cyanide sensitive
  inhibition at 10 µM: 99.4%
BDQ 10 uM, cyanide sensitive, 60 min, frozen human mito, BDQ in DMSO
  cyanide sensitive ATP produced, pmol/min/mg: 43.39 pmol/min/mg
[9]
  cyanide sensitive % activity: -1.4%
  cyanide sensitive % inhibition: 101.4%
BDQ 10 uM, cyanide sensitive, human, read-out: cyanide sensitive % inhibition
  inhibition at 10 µM: 102%
[10]
  Cyanide sensitive: 4.658 nmol/min/mg
  activity at 0.05 µM: 64.1%
Human Mito, 1st exp (12-14-18), Bedaquiline 0.1 μM, 60 min
  Cyanide sensitive: 6.127 nmol/min/mg
Human Mito, 1st exp (12-14-18), Bedaquiline 0.1 μM, 60 min, read-out: % activity
  activity at 0.1 µM: 84.3%
Human Mito, 1st exp (12-14-18), Bedaquiline 0.2 μM, 60 min
  Cyanide sensitive: 4.027 nmol/min/mg
Human Mito, 1st exp (12-14-18), Bedaquiline 0.2 μM, 60 min, read-out: % activity
  activity at 0.2 µM: 55.4%
Human Mito, 1st exp (12-14-18), Bedaquiline 0.5 μM, 60 min
  Cyanide sensitive: 2.18 nmol/min/mg
Human Mito, 1st exp (12-14-18), Bedaquiline 0.5 μM, 60 min, read-out: % activity
  activity at 0.5 µM: 30%
Human Mito, 1st exp (12-14-18), Bedaquiline 0.65 μM, 60 min
  Cyanide sensitive: -0.9359 nmol/min/mg
Human Mito, 1st exp (12-14-18), Bedaquiline 0.65 μM, 60 min, read-out: % activity
  activity at 0.65 µM: -12.9%
Human Mito, 1st exp (12-14-18), Bedaquiline 0.85 μM, 60 min
  Cyanide sensitive: -0.002656 nmol/min/mg
Human Mito, 1st exp (12-14-18), Bedaquiline 0.85 μM, 60 min, read-out: % activity
  activity at 0.85 µM: -0.0365%
Human Mito, 1st exp (12-14-18), Bedaquiline 2 μM, 60 min
  Cyanide sensitive: -1.2927 nmol/min/mg
Human Mito, 1st exp (12-14-18), Bedaquiline 2 μM, 60 min, read-out: % activity
  activity at 2 µM: -17.8%
Human Mito, 1st exp (12-14-18), Bedaquiline 5 μM, 60 min
  Cyanide sensitive: -0.5097 nmol/min/mg
Human Mito, 1st exp (12-14-18), Bedaquiline 5 μM, 60 min, read-out: % activity
  activity at 5 µM: -7.01%
Human Mito, 1st exp (18_12_14), BDQ 0.1 uM, read-out: Cyanide sensitive % activity
  activity at 0.1 µM: 73.2%
Human Mito, 1st exp (18_12_14), BDQ 0.2 uM, read-out: Cyanide sensitive % activity
  activity at 0.2 µM: 57.7%
Human Mito, 1st exp (18_12_14), BDQ 0.5 uM, read-out: Cyanide sensitive % activity
  activity at 0.5 µM: 44%
Human Mito, 1st exp (18_12_14), BDQ 0.85 uM, read-out: Cyanide sensitive % activity
  activity at 0.85 µM: 16.6%
Human Mito, 1st exp (18_12_14), BDQ 2 uM, read-out: Cyanide sensitive % activity
  activity at 2 µM: -8.33%
[11]
  Cyanide sensitive: 3.788 nmol/min/mg
  activity at 0.05 µM: 43.8%
Human Mito, 2nd exp (12-17-18), Bedaquiline 0.1 μM, 60 min
  Cyanide sensitive: 5.369 nmol/min/mg
Human Mito, 2nd exp (12-17-18), Bedaquiline 0.1 μM, 60 min, read-out: % activity
  activity at 0.1 µM: 62%
